The target in one test is T1, HiBit-BRM fusion protein (Homo sapiens, UniProt P51531).
T1 construct: expressed in transfected cells
The experiment in a line: HiBiT-BRM cell-based degradation assay (Nano-Glo HiBiT Lytic Detection, 24 h). The settings on record: HeLa cells expressing HiBiT-BRM; for DC50: read-out: BRM HiBit Degradation IC50; for BRM HiBit Degradation Maximum measured: top dose 30 μM. A digest of the protocol: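 Residual HiBiT-BRM in a stable HeLa line was measured by Nano-Glo lytic luminescence after 24 h compound exposure (top final dose 30 μM, 3-fold, 10 points, duplicate). Values are % degradation, scaled between DMSO-treated cells and cells given 2 μM of a known BRM/BRG1 degrader.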

For test [1], the target named is T2, HiBit-BRG1 fusion protein (Homo sapiens, UniProt P51532).
T2 construct: expressed in transfected cells
T2 sequence (P51532 whole entry, the tested form may be a part): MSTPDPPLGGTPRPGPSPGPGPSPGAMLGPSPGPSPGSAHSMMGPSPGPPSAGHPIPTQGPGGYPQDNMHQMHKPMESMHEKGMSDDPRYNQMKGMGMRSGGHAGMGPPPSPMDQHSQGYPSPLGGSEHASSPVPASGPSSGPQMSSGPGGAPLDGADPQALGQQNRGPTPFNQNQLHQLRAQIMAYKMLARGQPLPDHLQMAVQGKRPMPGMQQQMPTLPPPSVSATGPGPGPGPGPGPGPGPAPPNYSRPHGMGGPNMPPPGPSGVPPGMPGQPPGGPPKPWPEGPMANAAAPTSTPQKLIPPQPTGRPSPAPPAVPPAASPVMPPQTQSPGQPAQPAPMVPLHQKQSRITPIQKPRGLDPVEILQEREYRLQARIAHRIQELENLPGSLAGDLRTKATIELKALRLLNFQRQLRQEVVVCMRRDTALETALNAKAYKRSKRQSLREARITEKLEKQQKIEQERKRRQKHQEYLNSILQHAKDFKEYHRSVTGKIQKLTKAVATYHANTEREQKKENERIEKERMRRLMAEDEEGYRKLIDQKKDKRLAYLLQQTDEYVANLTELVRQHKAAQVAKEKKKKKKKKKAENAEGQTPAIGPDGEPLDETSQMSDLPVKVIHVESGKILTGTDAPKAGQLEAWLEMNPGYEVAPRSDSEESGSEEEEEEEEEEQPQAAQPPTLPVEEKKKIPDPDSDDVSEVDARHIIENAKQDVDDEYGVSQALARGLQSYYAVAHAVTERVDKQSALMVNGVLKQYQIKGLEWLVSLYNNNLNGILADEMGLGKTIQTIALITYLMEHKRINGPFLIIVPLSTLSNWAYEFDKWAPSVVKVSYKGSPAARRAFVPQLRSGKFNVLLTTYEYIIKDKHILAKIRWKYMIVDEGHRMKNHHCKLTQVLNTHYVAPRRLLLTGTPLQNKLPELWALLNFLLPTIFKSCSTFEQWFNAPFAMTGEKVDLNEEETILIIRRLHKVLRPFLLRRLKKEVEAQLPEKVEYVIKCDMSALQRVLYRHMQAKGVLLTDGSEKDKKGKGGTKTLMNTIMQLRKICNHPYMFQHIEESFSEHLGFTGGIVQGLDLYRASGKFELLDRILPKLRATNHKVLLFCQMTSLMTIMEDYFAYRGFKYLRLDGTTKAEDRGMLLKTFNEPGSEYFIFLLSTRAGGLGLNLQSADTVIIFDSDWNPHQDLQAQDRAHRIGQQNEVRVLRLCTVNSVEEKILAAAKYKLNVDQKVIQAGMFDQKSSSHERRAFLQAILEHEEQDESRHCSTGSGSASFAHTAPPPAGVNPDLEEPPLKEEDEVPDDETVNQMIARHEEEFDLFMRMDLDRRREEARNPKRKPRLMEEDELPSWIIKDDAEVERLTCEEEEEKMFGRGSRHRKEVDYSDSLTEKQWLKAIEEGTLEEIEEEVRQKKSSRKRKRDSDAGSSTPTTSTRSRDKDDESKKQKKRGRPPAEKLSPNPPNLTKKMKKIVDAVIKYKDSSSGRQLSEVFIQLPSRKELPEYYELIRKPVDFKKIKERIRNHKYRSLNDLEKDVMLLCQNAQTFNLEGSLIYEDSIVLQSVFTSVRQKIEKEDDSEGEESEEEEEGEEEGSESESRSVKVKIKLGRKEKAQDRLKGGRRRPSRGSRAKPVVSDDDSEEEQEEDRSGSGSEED
Nature of the test: HiBiT-BRG1 cell-based degradation assay (Nano-Glo HiBiT Lytic Detection, 24 h). To be noted: HeLa cells expressing HiBit-BRG1 and LgBit; for DC50: read-out: BRG1 HiBit Degradation IC50; for Dmax: HeLa, top dose 30 μM, read-out: BRG1 HiBit Degradation Maximum measured. A digest of the protocol:
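Degradation is scaled from DMSO-treated cells (0%) to cells given 2 μM of a known BRM/BRG1 degrader (100%). HeLa cells stably carrying HiBiT-BRG1 plus LgBiT (5000/well) were lysed with Nano-Glo HiBiT detection reagent, shaken 10 min at RT, and luminescence read.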

T1 sequence (P51531 whole entry, the tested form may be a part): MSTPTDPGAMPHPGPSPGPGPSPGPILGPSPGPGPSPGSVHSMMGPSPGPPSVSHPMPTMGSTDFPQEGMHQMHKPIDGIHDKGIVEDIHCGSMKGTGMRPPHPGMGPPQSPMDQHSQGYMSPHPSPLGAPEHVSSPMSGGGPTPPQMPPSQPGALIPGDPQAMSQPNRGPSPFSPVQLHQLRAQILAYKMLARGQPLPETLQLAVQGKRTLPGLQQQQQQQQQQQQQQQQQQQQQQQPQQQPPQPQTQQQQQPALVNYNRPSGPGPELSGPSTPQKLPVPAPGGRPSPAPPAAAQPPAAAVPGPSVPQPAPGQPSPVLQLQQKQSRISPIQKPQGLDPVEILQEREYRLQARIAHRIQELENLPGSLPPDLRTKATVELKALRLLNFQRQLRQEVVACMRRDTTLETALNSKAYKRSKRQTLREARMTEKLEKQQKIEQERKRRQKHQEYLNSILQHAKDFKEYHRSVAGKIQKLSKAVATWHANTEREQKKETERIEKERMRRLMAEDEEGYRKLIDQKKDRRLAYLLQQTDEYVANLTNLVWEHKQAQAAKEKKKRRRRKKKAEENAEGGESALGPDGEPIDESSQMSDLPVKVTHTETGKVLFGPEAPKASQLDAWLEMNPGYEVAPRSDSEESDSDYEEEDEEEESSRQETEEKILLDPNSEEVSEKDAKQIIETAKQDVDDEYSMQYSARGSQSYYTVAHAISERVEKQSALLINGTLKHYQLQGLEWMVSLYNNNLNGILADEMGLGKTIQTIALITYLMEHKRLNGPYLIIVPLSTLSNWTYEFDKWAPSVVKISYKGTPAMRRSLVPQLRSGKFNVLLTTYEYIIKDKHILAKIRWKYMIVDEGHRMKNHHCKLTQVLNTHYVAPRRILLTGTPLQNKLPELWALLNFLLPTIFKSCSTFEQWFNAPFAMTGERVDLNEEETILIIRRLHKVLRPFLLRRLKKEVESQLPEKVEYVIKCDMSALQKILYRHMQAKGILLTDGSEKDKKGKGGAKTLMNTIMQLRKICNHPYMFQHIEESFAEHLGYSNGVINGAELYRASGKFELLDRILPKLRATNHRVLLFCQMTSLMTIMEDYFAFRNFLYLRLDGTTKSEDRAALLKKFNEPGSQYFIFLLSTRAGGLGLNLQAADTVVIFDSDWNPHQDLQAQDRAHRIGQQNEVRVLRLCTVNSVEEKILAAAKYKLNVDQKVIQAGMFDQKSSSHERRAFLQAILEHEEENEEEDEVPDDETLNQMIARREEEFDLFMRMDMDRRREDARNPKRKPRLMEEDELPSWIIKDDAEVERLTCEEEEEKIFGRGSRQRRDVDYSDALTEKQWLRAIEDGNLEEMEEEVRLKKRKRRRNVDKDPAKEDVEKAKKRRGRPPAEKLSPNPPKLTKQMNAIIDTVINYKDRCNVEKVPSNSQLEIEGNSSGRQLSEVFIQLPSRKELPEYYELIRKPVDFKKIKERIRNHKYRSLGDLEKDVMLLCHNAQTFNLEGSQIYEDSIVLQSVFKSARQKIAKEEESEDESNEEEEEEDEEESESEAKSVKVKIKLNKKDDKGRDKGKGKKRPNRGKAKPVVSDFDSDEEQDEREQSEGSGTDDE

Take `CS(=O)(=O)n1ccc(C(=O)N[C@@H](COCc2ccc(C(=O)NCCNc3ccc4c(c3)C(=O)N(C3CCC(=O)NC3=O)C4=O)cc2)C(=O)Nc2nc(-c3ccccc3)cs2)c1` (stereo partly drawn) [Compound 240, N-(2-[[2-(2,6-dioxopiperidin-3-yl)-1,3-dioxoisoindol-5-yl]amino]ethyl)-4-[[(2S)-2-[(1-methanesulfonylpyrrol-3-yl)formamido]-2-[(4-phenyl-1,3-thiazol-2-yl)carbamoyl]ethoxy]methyl]benzamide]: on HiBit-BRM fusion protein, the DC50 is over 10000 nM and the “BRM HiBit Degradation Maximum measured” value is recorded as “C (‘C’ = Maximum degradation <50%)”. Further, in test [1], the DC50 was over 10000 nM and the Dmax was under 50%.
For `Cc1ncsc1-c1ccc(CNC(=O)[C@@H]2CC(O)CN2C(=O)[C@@H](NC(=O)COCCOCCOCCNC(=O)CN(C)c2cc(-c3cccc(-c4csc(NC(=O)CNC(=O)c5ccn(S(C)(=O)=O)c5)n4)c3)ccn2)C(C)(C)C)cc1` (some centres unmarked) [Compound 89], on HiBit-BRM fusion protein, the DC50 is over 10000 nM and the “BRM HiBit Degradation Maximum measured” value is “C (‘C’ = Maximum degradation <50%)”. In test [1], the DC50 was over 10000 nM and the Dmax was under 50%.
In the case of `CS(=O)(=O)n1ccc(C(=O)NCC(=O)Nc2nc(-c3cccc(-c4ccnc(C5(C(=O)N6CCN(CC7CCN(c8ccc9c(c8)C(=O)N(C8CCC(=O)NC8=O)C9=O)CC7)CC6)CC5)c4)c3)cs2)c1` (centres unmarked) [Compound 134, N-[4-[3-(2-[1-[4-([1-[2-(2,6-dioxopiperidin-3-yl)-1,3-dioxoisoindol-5-yl]piperidin-4-yl]methyl)piperazine-1-carbonyl]cyclopropyl]pyridin-4-yl)phenyl]-1,3-thiazol-2-yl]-2-[(1-methanesulfonylpyrrol-3-yl)formamido]acetamide], at HiBit-BRM fusion protein, the DC50 lay in the range of 100 to 1000 nM and the “BRM HiBit Degradation Maximum measured” value is on record as “A (‘A’ = Maximum degradation >75%)”. Besides, in test [1], the DC50 was under 100 nM and the Dmax is over 75%.
Regarding `CS(=O)(=O)n1ccc(C(=O)NCC(=O)Nc2nc(-c3cccc(-c4ccnc(N5CCN(C(=O)CCOCCOCCNc6ccc7c(c6)C(=O)N(C6CCC(=O)NC6=O)C7=O)CC5)c4)c3)cs2)c1` (centres unmarked) [Compound 40, N-(2-((4-(3-(2-(4-(3-(2-(2-((2-(2,6-dioxopiperidin-3-yl)-1,3-dioxoisoindolin-5-yl)amino)ethoxy)ethoxy)propanoyl)piperazin-1-yl)pyridin-4-yl)phenyl)thiazol-2-yl)amino)-2-oxoethyl)-1-(methylsulfonyl)-1H-pyrrole-3-carboxamide], on HiBit-BRM fusion protein, the DC50 was under 100 nM and the “BRM HiBit Degradation Maximum measured” value is “A (‘A’ = Maximum degradation >75%)”. In addition, in test [1], the DC50 is under 100 nM and the Dmax is over 75%.
Take `Cc1ncsc1-c1ccc(CNC(=O)[C@@H]2C[C@@H](O)CN2C(=O)[C@@H](NC(=O)CCCCCCCCCCC(=O)NCc2cccc(-c3cccc(-c4csc(NC(=O)CNC(=O)c5ccn(S(C)(=O)=O)c5)n4)c3)c2)C(C)(C)C)cc1` [Compound 119, N1-((S)-1-((2S,4R)-4-hydroxy-2-((4-(4-methylthiazol-5-yl)benzyl)carbamoyl)pyrrolidin-1-yl)-3,3-dimethyl-1-oxobutan-2-yl)-N12-((3′-(2-(2-(1-(methylsulfonyl)-1H-pyrrole-3-carboxamido)acetamido)thiazol-4-yl)-[1,1′-biphenyl]-3-yl)methyl)dodecanediamide]: on HiBit-BRM fusion protein, the DC50 lay in the range of 100 to 1000 nM and the “BRM HiBit Degradation Maximum measured” value is given as “A (‘A’ = Maximum degradation >75%)”. Besides, in test [1], the DC50 lay in the range of 100 to 1000 nM and the Dmax was over 75%.

For the origin of these results see patent US12662479B2 (Foghorn Therapeutics Inc., priority 2020, dated 2026).
